# Key:
# [1] = molecular target: T1, SGLT1 (Homo sapiens, UniProt P13866); assay: SGLT1 activity measurement: 14C-AMG uptake in BHK cells transfected with SGLT1; format: cell-based; conditions: AMG 50 μM, 37° C., 90 min
# T1 construct: expressed in transfected cells
# T1 sequence (P13866 1-664): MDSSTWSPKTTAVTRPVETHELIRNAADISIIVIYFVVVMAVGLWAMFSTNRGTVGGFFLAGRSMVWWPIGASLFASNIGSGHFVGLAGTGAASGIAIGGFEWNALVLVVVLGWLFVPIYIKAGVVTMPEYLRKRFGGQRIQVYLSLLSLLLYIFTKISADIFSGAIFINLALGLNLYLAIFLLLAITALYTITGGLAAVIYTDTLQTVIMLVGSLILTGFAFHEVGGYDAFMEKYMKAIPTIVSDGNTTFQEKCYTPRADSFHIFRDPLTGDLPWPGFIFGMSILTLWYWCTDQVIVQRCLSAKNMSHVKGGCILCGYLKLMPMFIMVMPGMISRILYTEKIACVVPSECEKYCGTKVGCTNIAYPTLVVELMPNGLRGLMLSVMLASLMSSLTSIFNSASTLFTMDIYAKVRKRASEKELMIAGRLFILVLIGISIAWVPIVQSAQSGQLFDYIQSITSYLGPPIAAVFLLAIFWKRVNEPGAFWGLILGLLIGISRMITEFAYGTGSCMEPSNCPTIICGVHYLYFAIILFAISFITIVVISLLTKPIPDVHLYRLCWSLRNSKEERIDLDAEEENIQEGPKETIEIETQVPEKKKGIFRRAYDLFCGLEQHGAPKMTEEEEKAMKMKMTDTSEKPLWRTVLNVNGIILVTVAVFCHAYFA
# Source text: (§1) The compounds can be tested on their SGLT inhibition properties by means of BHK cells expressing SGLT1 and SGLT2. The production of the cells and the testing can be carried out as described below.
# To construct the SGLT1 expression vector (KL225), the SLC5A1 gene (homologous to NM_000343) was amplified from a cDNA library using standard PCR technology and cloned over NheI/XhoI sites into pcDNA3.1 expression vector (Invitrogen) containing neomycin as a selection marker. In this vector, transcription uses the enhancer/promoter of human cytomegalovirus.
# The final vector KL225 together with an additional vector containing a dihydrofolate reductase gene as a selection marker was introduced into cells. Transfection into BHK21 cells (ATCC CCL-10), cultivated in DMEM medium (GIBCO/BRL), supplemented with 10% foetal calf serum (FCS) and 20 mM glutamine, was carried out using calcium phosphate transfections according to Graham, F. L. and van der Ebb, A. J. (1973), Virology 52: 456 with 5-20 μg of uncut plasmids for 10^7 cells. Stable transfectants were selected in medium containing 1 mg/ml of G418 (GIBCO/BRL) and 20-5000 nM methotrexate as final concentration, where only cells which expressed the neomycin gene and overexpressed the dhfr gene were able to grow. After growth for 2-3 weeks, the cells were cloned (0.5 cells/well) and the clones were investigated for SGLT expression in the radioactive uptake assay. […]
# (§2) A 96-well cell-based assay was developed and adapted to HTS requirements:
# (§3) BHK cells (transfected with SGLT1 or SGLT2) were seeded into 96-well microtitre plates (Cultureplates, Perkin Elmer). After at least 24 h, medium was removed and the cell layer was washed with assay buffer (140 mM NaCl, 2 mM KCl, 1 mM CaCl2, 1 mM MgCl2, 10 mM HEPES, 5 mM Tris, adjusted with 1 M KOH to pH 7.4). After addition of 40 μl of assay buffer, 50 μl of AMG (50 μM for SGLT1 and 2 mM for SGLT2) in the presence or absence of compounds, the cells were incubated in a total volume of 100 μl at 37° C. for 90 min. Supernatant was removed by suction and discarded. The cells were washed and lysed by addition of 50 μl water. After 10 minutes at room temperature 200 μl Microscint 40 (Perkin Elmer) were added. The radioactivity was counted in a Topcount microplate scintillation counter (Perkin Elmer). The non-specific uptake was determined in sodium-free assay buffer (266 mM sucrose, 2 mM KCl, 1 mM CaCl2, 1 mM MgCl2, 10 mM HEPES, 5 mM Tris, adjusted with 1 M KOH to pH 7.4).
# [2] = molecular target: T2, SGLT2 (Homo sapiens, UniProt P31639); assay: SGLT2 activity measurement: 14C-AMG uptake in BHK cells transfected with SGLT2; format: cell-based; conditions: AMG 2 mM, 37° C., 90 min
# T2 construct: expressed in transfected cells
# T2 sequence (P31639 1-672): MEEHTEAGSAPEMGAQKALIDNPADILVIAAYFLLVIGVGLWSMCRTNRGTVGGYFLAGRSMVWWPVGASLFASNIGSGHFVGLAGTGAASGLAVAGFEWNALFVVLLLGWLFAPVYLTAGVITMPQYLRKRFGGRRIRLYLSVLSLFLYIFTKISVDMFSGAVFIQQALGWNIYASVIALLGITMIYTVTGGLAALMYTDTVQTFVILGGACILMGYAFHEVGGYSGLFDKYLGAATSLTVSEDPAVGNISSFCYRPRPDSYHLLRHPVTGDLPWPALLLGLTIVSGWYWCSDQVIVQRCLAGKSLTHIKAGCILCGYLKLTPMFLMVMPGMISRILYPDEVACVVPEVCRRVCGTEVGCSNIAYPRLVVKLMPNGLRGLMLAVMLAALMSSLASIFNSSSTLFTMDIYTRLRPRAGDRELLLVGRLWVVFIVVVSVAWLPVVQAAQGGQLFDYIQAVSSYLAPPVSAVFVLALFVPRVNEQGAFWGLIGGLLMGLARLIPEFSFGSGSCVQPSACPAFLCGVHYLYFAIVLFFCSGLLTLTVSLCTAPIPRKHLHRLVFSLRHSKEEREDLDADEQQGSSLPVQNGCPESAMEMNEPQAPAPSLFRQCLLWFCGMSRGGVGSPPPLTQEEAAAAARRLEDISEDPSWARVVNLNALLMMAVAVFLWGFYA
# Source text: as §1
# To construct the SGLT2 expression vector (KL224), the SLC5A2 gene (homologous to NM_003041) was amplified from a cDNA library using standard PCR technology and cloned over NheI/XhoI sites into PCI-neo expression vector (Promega) containing neomycin as a selection marker. In this vector, transcription used the enhancer/promoter of human cytomegalovirus and the SV40 polyadenylation signal.
# The final vector KL224 together with an additional vector containing a dihydrofolate reductase gene as a selection marker was introduced into cells. Transfection into BHK21 cells (ATCC CCL-10), cultivated in DMEM medium (GIBCO/BRL), supplemented with 10% foetal calf serum (FCS) and 20 mM glutamine, was carried out using calcium phosphate transfections according to Graham, F. L. and van der Ebb, A. J. (1973), Virology 52: 456 with 5-20 μg of uncut plasmids for 10^7 cells. Stable transfectants were selected in medium containing 1 mg/ml of G418 (GIBCO/BRL) and 20-5000 nM methotrexate as final concentration, where only cells which expressed the neomycin gene and overexpressed the dhfr gene were able to grow. After growth for 2-3 weeks, the cells were cloned (0.5 cells/well) and the clones were investigated for SGLT expression in the radioactive uptake assay.
# Principally, uptake of ^14C-α-methyl-D-glucopyranoside (AMG) in, for example, Xenopus oocytes injected with the corresponding cRNA has been described (for example Wen-Sen Lee et al. (1994), J. Biol. Chem. 269, 12032-12039; Guofeng You et al. (1995), J. Biol. Chem. 270, 29365-29371).
# as §2, §3
Compound,IC50 [1] [nM],IC50 [2] [nM]
"CCc1cc(OC)cc(OCC(N)=O)c1-c1nc2c(F)cc(F)cn2c1Nc1c(C)cc(F)cc1C [Compound A255, 2-[2-(Aminocarbonylmethoxy)-4-methoxy-6-ethylphenyl]-3-(2,6-dimethyl-4-fluorophenyl-amino)-6,8-difluoroimidazo[1,2-a]pyridine]",1000 to 10000,10 to 1000
"Cc1cccc(Cl)c1Nc1c(-c2ccccc2OCC(N)=O)nc2ccccn12 [Compound A6, 2-[2-(Aminocarbonylmethoxy)phenyl]-3-(2-chloro-6-methylphenylamino)imidazo[1,2-a]-pyridine]",> 10000,10 to 1000
"COc1cc(C)c(-c2nc3ccc(F)cn3c2Nc2c(C)cccc2OC)c(OCC(N)=O)c1 [Compound A214, 2-[2-(Aminocarbonylmethoxy)-4-methoxy-6-methylphenyl]-3-(2-methoxy-6-methylphenyl-amino)-6-fluoroimidazo[1,2-a]pyridine]",> 10000,10 to 1000
"COc1cc(C)c(-c2nc3ccc(F)cn3c2Nc2c(C)cc(Cl)cc2C)c(OCC(N)=O)c1 [Compound A222, 2-[2-(Aminocarbonylmethoxy)-4-methoxy-6-methylphenyl]-3-(4-chloro-2,6-dimethylphenyl-amino)-6-fluoroimidazo[1,2-a]pyridine]",1000 to 10000,10 to 1000
"Cc1cccc(Cl)c1Nc1c(-c2ccccc2OCC(N)=O)nc2cccc(C)n12 [Compound A10, 2-[2-(Aminocarbonylmethoxy)phenyl]-3-(2-chloro-6-methylphenylamino)-5-methyl-imidazo[1,2-a]pyridine]",1000 to 10000,10 to 1000
"Cc1cccc(C)c1Nc1c(-c2c(O)cccc2OCC(N)=O)nc2ccccn12 [Compound A176, 2-[2-(Aminocarbonylmethoxy)-6-hydroxyphenyl]-3-(2,6-dimethylphenylamino)imidazo[1,2-a]-pyridine]",> 10000,1000 to 10000
"Cc1cccc(C)c1Nc1c(-c2c(Cl)cccc2OCC(N)=O)nc2ccc(F)cn12 [Compound A3, 2-[2-(aminocarbonylmethoxy)-6-chlorophenyl]-3-(2,6-dimethylphenylamino)-6-fluoroimidazo[1,2-a]pyridine]",1000 to 10000,10 to 1000
"CCc1cc(OC2CCCCO2)cc(OCC(N)=O)c1-c1nc2ccc(F)cn2c1Nc1c(C)cccc1C (centres unmarked) [Compound A182, 2-[2-(Aminocarbonylmethoxy)-4-(tetra-hydropyran-2-yloxy)-6-ethylphenyl]-3-(2,6-dimethylphenylamino)-6-fluoroimidazo[1,2-a]-pyridine]",> 10000,10 to 1000
"COc1cc(C)c(-c2nc3cccc(N)n3c2Nc2c(C)cccc2C)c(OCC(N)=O)c1 [Compound A207, 2-[2-(Aminocarbonylmethoxy)-4-methoxy-6-methylphenyl]-3-(2,6-dimethylphenylamino)-5-aminoimidazo[1,2-a]pyridine]",> 10000,10 to 1000
"CCc1cc(OC2CCCCO2)cc(OCC(N)=O)c1-c1nc2ccccn2c1Nc1c(C)cccc1C (centres unmarked) [Compound A166, 2-[2-(Aminocarbonylmethoxy)-4-(tetra-hydropyran-2-yloxy)-6-ethylphenyl]-3-(2,6-dimethylphenylamino)imidazo[1,2-a]pyridine]",> 10000,10 to 1000
"COc1cc(C)c(-c2nc3ccc(F)cn3c2Nc2c(F)cc(Br)cc2F)c(OCC(N)=O)c1 [Compound A252, 2-[2-(Aminocarbonylmethoxy)-4-methoxy-6-methylphenyl]-3-(2,6-difluoro-4-bromophenyl-amino)-6-fluoroimidazo[1,2-a]pyridine]",1000 to 10000,1000 to 10000
"COc1cc(OC)c(-c2nc3ccc(F)cn3c2Nc2c(C)cccc2C)c(OCC(N)=O)c1 [Compound A199, 2-[2-(Aminocarbonylmethoxy)-4-methoxy-6-methoxyphenyl]-3-(2,6-dimethylphenylamino)-6-fluoroimidazo[1,2-a]pyridine]",> 10000,10 to 1000
"COc1cc(C)c(-c2nc3ccc(F)cn3c2Nc2c(C)cccc2C(F)(F)F)c(OCC(N)=O)c1 [Compound A236, 2-[2-(Aminocarbonylmethoxy)-4-methoxy-6-methylphenyl]-3-(2-methyl-6-trifluoromethyl-phenylamino)-6-fluoroimidazo[1,2-a]pyridine]",1000 to 10000,10 to 1000
"Cc1cccc(C)c1Nc1c(-c2ccccc2OCC(N)=O)nc2ccccn12 [Compound A4, 2-[2-(Aminocarbonylmethoxy)phenyl]-3-(2,6-di-methylphenylamino)imidazo[1,2-a]pyridine]",> 10000,10 to 1000
"CCc1cc(OC)cc(OCC(N)=O)c1-c1nc2ccc(F)cn2c1Nc1c(C)ccc(Cl)c1C [Compound A217, 2-[2-(Aminocarbonylmethoxy)-4-methoxy-6-ethylphenyl]-3-(3-chloro-2,6-dimethylphenyl-amino)-6-fluoroimidazo[1,2-a]pyridine]",1000 to 10000,10 to 1000
"COc1cc(C)c(-c2nc3ccc(F)cn3c2Nc2c(F)cccc2Br)c(OCC(N)=O)c1 [Compound A243, 2-[2-(Aminocarbonylmethoxy)-4-methoxy-6-methylphenyl]-3-(2-fluoro-6-bromophenylamino)-6-fluoroimidazo[1,2-a]pyridine]",1000 to 10000,10 to 1000

# Reference: patent publication US8258151B2, “3-aminoimidazo [1,2-A] pyridine derivatives as SGLT inhibitors” (Merck Patent GmbH, priority 2006, dated 2012)
